Assays:
[1] = test system: secretion of interferon-beta from THP1 cells; assay: IFN-β secretion in THP1 cell culture (5 h); format: cell-based; conditions: Homo sapiens, THP-1, 5 h, 30 uM cGAMP = 100%; for activation at 3 µM: compound at 3 uM, read-out: % Effect relative to 2′3′-cGAMP (@ 3 uM); for activation at 30 µM: compound at 30 μM, read-out: % Effect at 30 μM relative to 2′3′-cGAMP
Method in brief: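 IFN-β in supernatant measured by AlphaLISA after a 5 h, 37 °C incubation of THP1 cells with compound (10 concentrations, 30000 down to 1.5 nM, 0.3% DMSO) in low-serum RPMI. Values scaled between DMSO and 30 uM cGAMP controls; 4-parameter curve fit yields EC50.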

[2] = molecular target: T1, full-length HAQ STING (Homo sapiens, UniProt Q86WV6, G230A/H232R/R293Q/R71H); assay: 3H-cGAMP filtration binding assay (HAQ STING); conditions: for EC50: competition with tritiated cGAMP, HAQ STING membrane
T1 construct: AviTag (after GG linker) (C); HRV3C cleavage site (after GS linker) (C); HIS8 (C); made in house; host or cells: Trichoplusia ni (Hi-Five) insect cells infected with baculovirus (virus generated and amplified in Sf21 cells); used as a washed membrane preparation
Method in brief: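 Hi-Five (T. ni) membranes overexpressing the STING variant (2.2 ug/ml working) preincubated with compound 60 min at RT in PBS, then [3H]cGAMP (8 nM working stock) added for 60 min at RT. Bound radioactivity captured on GF/B filters and counted by scintillation; EC50 from 4-parameter fit of control-normalized activity.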

[3] = molecular target: T2, full-length WT STING (Homo sapiens, UniProt Q86WV6, H232R); assay: 3H-cGAMP filtration binding assay (WT STING); conditions: for EC50: competition with tritiated cGAMP, WT STING membrane; for inhibition at 2 µM: at 2,000 nM compound
T2 construct: AviTag (after gg linker) (C); HRV3C cleavage site (after gs linker) (C); HIS8 (C); made in house; host or cells: Trichoplusia ni (Hi-Five) insect cells infected with baculovirus (virus generated and amplified in Sf21 cells); used as a washed membrane preparation
Method in brief: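 EC50 values come from 4-parameter fits of remaining filter-bound tritium versus log concentration (10-point, 1:3 dilution). Insect-cell membranes carrying full-length WT STING were incubated 60 min at RT with compound and tritiated cGAMP (16 nM working stock) before filtration.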

T2 sequence (Q86WV6 with tags, fused parts or gaps H232R): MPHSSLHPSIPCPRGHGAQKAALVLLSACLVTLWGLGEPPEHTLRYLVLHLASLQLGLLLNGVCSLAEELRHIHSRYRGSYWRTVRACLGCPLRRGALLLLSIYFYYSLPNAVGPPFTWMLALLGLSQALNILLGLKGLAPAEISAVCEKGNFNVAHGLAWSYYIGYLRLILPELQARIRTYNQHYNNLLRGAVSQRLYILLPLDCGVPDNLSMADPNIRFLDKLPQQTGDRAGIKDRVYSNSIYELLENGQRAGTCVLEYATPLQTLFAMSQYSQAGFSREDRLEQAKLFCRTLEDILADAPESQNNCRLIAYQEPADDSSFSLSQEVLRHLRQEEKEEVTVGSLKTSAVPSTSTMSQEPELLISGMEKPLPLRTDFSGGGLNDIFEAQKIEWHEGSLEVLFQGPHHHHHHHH
T1 sequence (Q86WV6 with tags, fused parts or gaps R71H/G230A/H232R/R293Q): as the sequence (Q86WV6 with tags, fused parts or gaps H232R) above, with R71H, G230A, R293Q counted along it

SMILES | EC50 [2] [nM] | EC50 [3] [nM] | inhibition at 7 µM ([3]; at 7,000 nM compound) [%] | inhibition at 2 µM [3] [%] | inhibition at 2 µM ([2]; at 2,000 nM compound) [%] | activation at 3 µM [1] [%] | activation at 30 µM [1] [%]
COc1cc2sc(C(=O)C[C@H](C)C(=O)O)cc2c(F)c1OCCCCOc1c(OC)cc2sc(C(=O)C[C@H](C)C(=O)O)cc2c1Br [Example 131, (S)-4-(5-(4-((4-bromo-2-((S)-3-carboxybutanoyl)-6-methoxybenzo[b]thiophen-5-yl)oxy)butoxy)-4-fluoro-6-methoxybenzo[b]thiophen-2-yl)-2-methyl-4-oxobutanoic acid] | 25 | 242 |  |  |  | 38 | 
COc1cc2sc(C(=O)C[C@H](C)C(=O)O)cc2c(Cl)c1OCCCOc1c(OC)cc2sc(C(=O)C[C@H](C)C(=O)O)cc2c1Cl [Example 132, (2S,2′S)-4,4′-(5,5′-(propane-1,3-diylbis(oxy))bis(4-chloro-6-methoxybenzo[b]thiophene-5,2-diyl))bis(2-methyl-4-oxobutanoic acid)] | 3 | 10 |  |  |  |  | 131
COc1cc2sc(C(=O)C[C@H](C)C(=O)O)cc2c(Br)c1OCCCOc1c(OC)cc2sc(C(=O)C[C@H](C)C(=O)O)cc2c1Br [Example 134, (2S,2′S)-4,4′-(5,5′-(propane-1,3-diylbis(oxy))bis(4-bromo-6-methoxybenzo[b]thiophene-5,2-diyl))bis(2-methyl-4-oxobutanoic acid)] | 22 | 233 |  |  |  |  | 89
COc1cc2sc(C[C@@H]3CC[C@H]3C(=O)O)cc2c(F)c1OCCCOc1c(OC)cc2sc(C(=O)C[C@H](C)C(=O)O)cc2c1F [Example 135, 2-((5-(3-((2-((S)-3-carboxybutanoyl)-4-fluoro-6-methoxybenzo[b]thiophen-5-yl)oxy)propoxy)-4-fluoro-6-methoxybenzo[b]thiophen-2-yl)methyl)cyclo-butanecarboxylic acid] | 1 | 5 |  |  |  |  | 100
COc1cc2sc(C[C@@H]3CC[C@H]3C(=O)O)cc2c(F)c1OCCCCOc1c(OC)cc2sc(C(=O)C[C@H](C)C(=O)O)cc2c1F [Example 136, 2-((5-(4-((2-((S)-3-carboxybutanoyl)-4-fluoro-6-methoxybenzo[b]thiophen-5-yl)oxy)butoxy)-4-fluoro-6-methoxybenzo[b]thiophen-2-yl)methyl)cyclo-butanecarboxylic acid] | 314 | 10300 |  |  |  |  | 37
COc1cc2sc(C(=O)C[C@H](C)C(=O)O)cc2c(F)c1OCCCOc1c(OC)c(Cl)c2sc(C(=O)C[C@H](C)C(=O)O)cc2c1Cl [Example 137, (S)-4-(5-(3-((2-((S)-3-carboxybutanoyl)-4,7-dichloro-6-methoxybenzo[b]thiophen-5-yl)oxy)propoxy)-4-fluoro-6-methoxybenzo[b]thiophen-2-yl)-2-methyl-4-oxobutanoic acid] | 40 | 319 |  |  |  |  | 155
COc1cc2sc(C(=O)C[C@H](C)C(=O)O)cc2c(F)c1OC(C)CCC(C)Oc1c(OC)cc2sc(C(=O)C[C@H](C)C(=O)O)cc2c1F (stereo partly drawn) [Example 140, (2S,2′S)-4,4′-((hexane-2,5-diylbis(oxy))bis(4-fluoro-6-methoxybenzo[b]thiophene-5,2-diyl))bis(2-methyl-4-oxobutanoic acid)] | 2150 |  | 28 |  |  | 31 | 
COc1cc2sc(C(=O)C[C@H](C)C(=O)O)cc2c(F)c1OCC(C)COc1c(OC)cc2sc(C(=O)C[C@H](C)C(=O)O)cc2c1F [Example 142, (2S,2′S)-4,4′-(((2-methylpropane-1,3-diyl)bis(oxy))bis(4-fluoro-6-methoxybenzo[b]thiophene-5,2-diyl))bis(2-methyl-4-oxobutanoic acid)] | 1 | 1 |  |  |  |  | 81
COc1cc2sc(C(=O)C[C@H](C)C(=O)O)cc2c(F)c1OCC1(COc2c(OC)cc3sc(C(=O)C[C@H](C)C(=O)O)cc3c2F)CC1 [Example 144, (2S,2′S)-4,4′-(((cyclopropane-1,1-diylbis-(methylene))bis (oxy))bis(4-fluoro-6-methoxybenzo[b]thiophene-5,2-diyl))bis(2-methyl-4-oxobutanoic acid)] | 15 | 93 |  |  |  |  | 8
COc1cc2sc(CC[C@H](C)C(=O)O)cc2cc1OCCCOc1c(OC)cc2sc(C(=O)C[C@H](C)C(=O)O)cc2c1Br [Example 146, (S)-4-(4-bromo-5-(3-((2-((S)-3-carboxybutyl)-6-methoxybenzo[b]thiophen-5-yl)oxy)propoxy)-6-methoxybenzo[b]thiophen-2-yl)-2-methyl-4-oxobutanoic acid] |  |  |  | 18 | 55 | 27 | 
COc1cc2sc(CC[C@H](C)C(=O)O)cc2c(F)c1OCCCOc1c(OC)cc2sc(C(=O)C[C@H](C)C(=O)O)cc2c1Cl [Example 147, (S)-4-(5-(3-((2-((S)-3-carboxybutyl)-4-fluoro-6-methoxybenzo[b]thiophen-5-yl)oxy)propoxy)-4-chloro-6-methoxybenzo[b]thiophen-2-yl)-2-methyl-4-oxobutanoic acid] | 18 | 207 |  |  |  | 71 | 
COc1cc2sc(CC[C@H](C)C(=O)O)cc2c(F)c1OCCCOc1c(OC)cc2sc(C(=O)C[C@H](C)C(=O)O)cc2c1Br [Example 148, (S)-4-(4-bromo-5-(3-((2-((S)-3-carboxybutyl)-4-fluoro-6-methoxybenzo[b]thiophen-5-yl)oxy)propoxy)-6-methoxybenzo[b]thiophen-2-yl)-2-methyl-4-oxobutanoic acid] | 395 | 411 |  |  |  | 41 | 

More lines, main results first:

EC50 [2] [nM] | EC50 [3] [nM] | inhibition at 7 µM ([3]; at 7,000 nM compound) [%] | inhibition at 2 µM [3] [%] | inhibition at 2 µM ([2]; at 2,000 nM compound) [%] | SMILES | activation at 3 µM [1] [%] | activation at 30 µM [1] [%]
15 | 147 |  |  |  | COc1cc2sc(C(=O)C[C@H](C)C(=O)O)cc2c(Cl)c1OCCCOc1c(OC)cc2sc(C(=O)C[C@H](C)C(=O)O)cc2c1Br [Example 133, (S)-4-(5-(3-((4-bromo-2-((S)-3-carboxybutanoyl)-6-methoxybenzo[b]thiophen-5-yl)oxy)propoxy)-4-chloro-6-methoxybenzo[b]thiophen-2-yl)-2-methyl-4-oxobutanoic acid] |  | 80
2 | 2 |  |  |  | COc1cc2sc(C(=O)C[C@H](C)C(=O)O)cc2c(F)c1OCCC(C)Oc1c(OC)cc2sc(C(=O)C[C@H](C)C(=O)O)cc2c1F (stereo partly drawn) [Example 138, (2S,2′S)-4,4′-((butane-1,3-diylbis(oxy))bis(4-fluoro-6-methoxybenzo[b]thiophene-5,2-diyl))bis(2-methyl-4-oxobutanoic acid)] |  | 89
3 | 12 |  |  |  | COc1cc2sc(C(=O)C[C@H](C)C(=O)O)cc2c(F)c1OCCCC(C)Oc1c(OC)cc2sc(C(=O)C[C@H](C)C(=O)O)cc2c1F (stereo partly drawn) [Example 139, (2S,2′S)-4,4′-((pentane-1,4-diylbis(oxy))bis(4-fluoro-6-methoxybenzo[b]thiophene-5,2-diyl))bis(2-methyl-4-oxobutanoic acid)] |  | 57
75 | 1450 |  |  |  | COc1cc2sc(C(=O)C[C@H](C)C(=O)O)cc2c(F)c1OCC(C)(C)COc1c(OC)cc2sc(C(=O)C[C@H](C)C(=O)O)cc2c1F [Example 143, (2S,2′S)-4,4′-(((2,2-dimethylpropane-1,3-diyl)bis(oxy))bis(4-fluoro-6-methoxybenzo[b]thiophene-5,2-diyl))bis(2-methyl-4-oxobutanoic acid)] | 26 | 
143 |  |  | 47 |  | COc1cc2sc(CC[C@H](C)C(=O)O)cc2cc1OCCCOc1c(OC)cc2sc(C(=O)C[C@H](C)C(=O)O)cc2c1Cl [Example 145, (S)-4-(5-(3-((2-((S)-3-carboxybutyl)-6-methoxybenzo[b]thiophen-5-yl)oxy)propoxy)-4-chloro-6-methoxybenzo[b]thiophen-2-yl)-2-methyl-4-oxobutanoic acid] | 59 | 
4 | 46 |  |  |  | COc1cc2sc(CCC(C)(C)C(=O)O)cc2c(F)c1OCCCOc1c(OC)cc2sc(C(=O)CC(C)(C)C(=O)O)cc2c1F [Example 149, 4-(5-(3-((2-(3-carboxy-3-methylbutyl)-4-fluoro-6-methoxybenzo[b]thiophen-5-yl)oxy)propoxy)-4-fluoro-6-methoxybenzo[b]thiophen-2-yl)-2,2-dimethyl-4-oxobutanoic acid] | 70 | 
213 | 1040 |  |  |  | COc1cc2sc(C(=O)C[C@H](C)C(=O)O)cc2cc1OCCCOc1c(OC)cc2sc(CC[C@H](C)C(=O)O)cc2c1Cl [Example 150, (S)-4-(5-(3-((2-((S)-3-carboxybutyl)-4-chloro-6-methoxybenzo[b]thiophen-5-yl)oxy)propoxy)-6-methoxybenzo[b]thiophen-2-yl)-2-methyl-4-oxobutanoic acid] | 52 | 
